Source: patent US20070129320A9, “Methods and compositions for inducing innate immune responses” (Coley Pharmaceutical Group, Ltd., priority 2004, published 2007)

Columns and labels:
[1] = tested on: murine cancer models; details: cited from earlier work
[2] = tested on: Renca (renal carcinoma) cells; assay: Renal cell carcinoma (Renca) tumor model in mice: survival and tumor growth; details: co-administration of immune stimulating complex (ISCOMATRIX adjuvant) with ODN 7909, compared with either agent alone
Procedure: • Mice: All experiments were carried out using female BALB/c mice aged 6-8 weeks with 10 mice per experimental or control group. • Oligonucleotides: All oligonucleotides were obtained from Coley Pharmaceutical GmbH, Langenfeld, Germany. • Immune stimulating complexes: ISCOMATRIX® adjuvant, herein referred to as IMX, was the immune stimulating complex used in these Examples.
Female BALB/c mice (n=10 per group) were injected with 2×10^5 Renca (renal carcinoma) cells by SC injection into the left flank. Animals were treated with CpG 7909 alone, ISCOMATRIX® (IMX) alone or a combination of CpG 7909 and INIX administered by SC injection into the tumor perimeter weekly from day 10-28 post tumor cell injection. Control animals were injected with 100 μl of phosphate buffered saline (PBS) weekly from day 10-38 post tumor cell injection. Animals were monitored for survival (FIG. 1, panel A) and tumor growth (FIG. 1, panel B). Tumor size (length and width) was measured using a digital vernier calliper. Tumor volume was calculated by using the formula: Tumor volume=(0.4) (ab2), where a=large diameter and b=smaller diameter. In the tumor volume graph (FIG. 1, panel B), changes in average tumor volume are indicated until 50% death in each animal group.

Sequence: TCGTCGTTTTGTCGTTTTGTCGTT [CpG 7909]
- anti-tumor effects ([1]; several murine cancer models, demonstrated previously): demonstrated previously
- effect on anti-tumor effects of chemotherapeutic drugs ([1]; shown previously): augment the anti-tumor effects of some chemotherapeutic drugs
- survival [2]: increased survival
- tumor growth [2]: controlled tumor growth better than did either agent alone
